# Laboratory results: patent US9725468B2, “C5-spiro iminothiazine dioxides as BACE inhibitors, compositions, and their use” (Merck Sharp & Dohme Corp., priority 2013, dated 2017)
# pKi: −log10 of the molar value.
# Columns and labels:
# [1] = target: soluble human BACE1 catalytic domain (Homo sapiens, UniProt P56817); experiment: BACE1 HTRF FRET Assay; format: biochemical; conditions: Ki calculated from IC50 using the Cheng-Prusoff equation; QSY7-APPswe-Eu substrate 200 nM, pH 5.0
# Source text: Na^+-Acetate pH 5.0; 1% Brij-35; Glycerol; Dimethyl Sulfoxide (DMSO); Recombinant human soluble BACE1 catalytic domain (>95% pure); APP Swedish mutant peptide substrate (QSY7-APP^swe-Eu): QSY7-EISEVNLDAEFC-Europium-amide.
# A homogeneous time-resolved FRET assay can be used to determine IC50 values for inhibitors of the soluble human BACE1 catalytic domain. This assay monitors the increase of 620 nm fluorescence that resulted from BACE1 cleavage of an APPswedish APP^swe mutant peptide FRET substrate (QSY7-EISEVNLDAEFC-Europium-amide). This substrate contains an N-terminal QSY7 moiety that serves as a quencher of the C-terminal Europium fluorophore (620 nm Em). In the absence of enzyme activity, 620 nm fluorescence is low in the assay and increased linearly over 3 hours in the presence of uninhibited BACE1 enzyme. Inhibition of BACE1 cleavage of the QSY7-APP^swe-Eu substrate by inhibitors is manifested as a suppression of 620 nm fluorescence.
# Varying concentrations of inhibitors at 3× the final desired concentration in a volume of 10 ul are preincubated with purified human BACE1 catalytic domain (3 nM in 10 μl) for 30 minutes at 30° C. in reaction buffer containing 20 mM Na-Acetate pH 5.0, 10% glycerol, 0.1% Brij-35 and 7.5% DSMO. Reactions are initiated by addition of 10 μl of 600 nM QSY7-APP^swe-Eu substrate (200 nM final) to give a final reaction volume of 30 μl in a 384 well Nunc HTRF plate. The reactions are incubated at 30° C. for 1.5 hours. The 620 nm fluorescence is then read on a Rubystar HTRF plate reader (BMG Labtechnologies) using a 50 millisecond delay followed by a 400 millisecond acquisition time window. Inhibitor IC50 values are derived from non-linear regression analysis of concentration response curves. Ki values are then calculated from IC50 values using the Cheng-Prusoff equation using a previously determined […] for the QSY7-APP^swe-Eu substrate at BACE1.
# [2] = target: T1, purified human autoBACE-2 (Homo sapiens, UniProt Q9Y5Z0); experiment: BACE-2 Assay (BACE-HTRF assay); format: biochemical; conditions: Ki calculated from IC50 using the Cheng-Prusoff equation; QSY7-EISEVNLDAEFC-Eu-amide substrate 200 nM, pH 5.0; read-out: BACE2 Ki
# T1 sequence (Q9Y5Z0 63-473 limits assumed): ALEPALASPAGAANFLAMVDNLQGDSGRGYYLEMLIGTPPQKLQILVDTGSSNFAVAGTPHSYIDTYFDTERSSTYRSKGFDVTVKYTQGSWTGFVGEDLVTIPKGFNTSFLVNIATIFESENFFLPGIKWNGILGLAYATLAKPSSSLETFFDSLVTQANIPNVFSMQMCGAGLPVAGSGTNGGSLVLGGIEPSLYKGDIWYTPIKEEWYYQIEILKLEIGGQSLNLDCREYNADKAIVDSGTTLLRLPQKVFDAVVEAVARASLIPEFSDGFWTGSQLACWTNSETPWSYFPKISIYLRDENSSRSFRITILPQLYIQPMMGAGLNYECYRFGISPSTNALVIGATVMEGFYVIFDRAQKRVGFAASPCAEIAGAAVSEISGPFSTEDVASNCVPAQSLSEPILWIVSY
# Experimental: Inhibitor ICsos at purified human autoBACE-2 are determined in a time-resolved endpoint proteolysis assay that measures hydrolysis of the QSY7-EISEVNLDAEFC-Eu-amide FRET peptide substrate (BACE-HTRF assay). BACE-mediated hydrolysis of this peptide results in an increase in relative fluorescence (RFU) at 620 nm after excitation with 320 nm light. Inhibitor compounds, prepared at 3× the desired final concentration in 1×BACE assay buffer (20 mM sodium acetate pH 5.0, 10% glycerol, 0.1% Brij-35) supplemented with 7.5% DMSO are preincubated with an equal volume of autoBACE-2 enzyme diluted in 1×BACE assay buffer (final enzyme concentration 1 nM) in black 384-well NUNC plates for 30 minutes at 30° C. The assay is initiated by addition of an equal volume of the QSY7-EISEVNLDAEFC-Eu-amide substrate (200 nM final concentration, […]) prepared in 1×BACE assay buffer supplemented with 7.5% DMSO and incubated for 90 minutes at 30° C. DMSO is present at 5% final concentration in the assay. Following laser excitation of sample wells at 320 nm, the fluorescence signal at 620 nm is collected for 400 ms following a 50 μs delay on a RUBYstar HTRF plate reader (BMG Labtechnologies). Raw RFU data is normalized to maximum (1.0 nM BACE/DMSO) and minimum (no enzyme/DMSO) RFU values. IC50s are determined by nonlinear regression analysis (sigmoidal dose response, variable slope) of percent inhibition data with minimum and maximum values set to 0 and 100 percent respectively. Similar IC50s are obtained when using raw RFU data. The Ki values are calculated from the IC50 using the Cheng-Prusoff equation.
# soluble human BACE1 catalytic domain, sequence (P56817 75-416 limits assumed): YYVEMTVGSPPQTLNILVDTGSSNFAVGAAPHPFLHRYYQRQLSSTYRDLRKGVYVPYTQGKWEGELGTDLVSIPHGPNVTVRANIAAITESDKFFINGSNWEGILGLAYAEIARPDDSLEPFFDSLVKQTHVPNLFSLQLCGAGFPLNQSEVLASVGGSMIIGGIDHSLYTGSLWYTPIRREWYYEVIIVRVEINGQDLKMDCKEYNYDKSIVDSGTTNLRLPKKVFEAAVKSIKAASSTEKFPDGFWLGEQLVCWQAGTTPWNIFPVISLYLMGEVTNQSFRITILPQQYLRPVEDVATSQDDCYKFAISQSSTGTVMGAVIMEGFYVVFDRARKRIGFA
SMILES,pKi [1],pKi [2]
CC1(C)C(=N)N[C@@]2(CCCc3ccc(NC(=O)c4cnsn4)cc32)CS1(=O)=O [Example G-2],7.46,8.15
COc1cnc(C(=O)Nc2ccc3c(c2)[C@]2(COC3)CS(=O)(=O)C(C)(C)C(=N)N2)c(C)n1 [Example E-20],6.66,7.22
CC1(C)C(=N)N[C@@]2(COCc3ccc(NC(=O)c4cnc(OCC(F)(F)F)cn4)cc32)CS1(=O)=O [Example E-16],7.00,6.40
CC1(C)C(=N)N[C@@]2(COCc3ccc(NC(=O)c4ccc(Cl)cn4)cc32)CS1(=O)=O [Example D-1],7.64,8.15
COc1ccc(C(=O)Nc2ccc3c(c2)[C@]2(CCC3)CS(=O)(=O)C(C)(C)C(=N)N2)nc1 [Example G-20],7.51,8.15
C#CCOc1ccc(C(=O)Nc2ccc3c(c2)[C@]2(COC3)CS(=O)(=O)C(C)(C)C(=N)N2)nc1 [Example E-19],7.52,6.73
CC1(C)C(=N)N[C@@]2(CCCc3ccc(NC(=O)c4ccn(C(F)F)n4)cc32)CS1(=O)=O [Example G-4],8.40,9.00
COc1cnc(C(=O)Nc2ccc3c(c2)[C@]2(CCO3)CS(=O)(=O)C(C)(C)C(=N)N2)c(C)c1 [Example C-20],7.70,8.52
CC1(C)C(=N)N[C@@]2(CCOc3ccc(NC(=O)c4cnc(OCCF)cn4)cc32)CS1(=O)=O [Example C-12],7.35,7.01
COc1cnc(C(=O)Nc2ccc3c(c2)[C@]2(CCC3)CS(=O)(=O)C(C)(C)C(=N)N2)c(C)n1 [Example G-9],7.19,7.77
CC1(C)C(=N)N[C@@]2(CCCc3ccc(NC(=O)c4ccc(C#N)cn4)cc32)CS1(=O)=O [Example G-21],8.40,7.92
COc1ccc(C(=O)Nc2ccc3c(c2)[C@]2(CCO3)CS(=O)(=O)C(C)(C)C(=N)N2)nc1 [Example B-2],7.24,7.55
CC1(C)C(=N)N[C@@]2(CCCc3ccc(NC(=O)c4ccc(Cl)cn4)cc32)CS1(=O)=O [Example F-1],7.96,8.52
CC1(C)C(=N)N[C@@]2(CCOc3ccc(NC(=O)C(F)F)cc32)CS1(=O)=O [Example B-4],5.89,6.94
CC1(C)C(=N)N[C@@]2(CCCc3ccc(NC(=O)c4ccc(OC(F)(F)F)cn4)cc32)CS1(=O)=O [Example G-16],7.89,7.29
COc1ccc(C(=O)Nc2ccc3c(c2)[C@]2(COC3)CS(=O)(=O)C(C)(C)C(=N)N2)nc1 [Example E-10],6.93,7.54
CC1(C)C(=N)N[C@@]2(CCOc3ccc(NC(=O)c4cnc(C(F)(F)F)cn4)cc32)CS1(=O)=O [Example C-24],7.41,6.74
CC1(C)C(=N)N[C@@]2(COCc3ccc(NC(=O)c4ncc(Cl)cc4F)cc32)CS1(=O)=O [Example E-15],7.43,8.30
COc1cnc(C(=O)Nc2ccc3c(c2)[C@]2(CCC3)CS(=O)(=O)C(C)(C)C(=N)N2)c(C)c1 [Example G-8],7.72,8.70
CC1(C)C(=N)N[C@@]2(CCCc3ccc(NC(=O)c4cnc(OCCF)cn4)cc32)CS1(=O)=O [Example G-17],6.85,6.81
CC1(C)C(=N)N[C@@]2(COCc3ccc(NC(=O)c4ncc(C(F)(F)F)cn4)cc32)CS1(=O)=O [Example E-1],6.19,6.29

SMILES,pKi [1],pKi [2]
CC1(C)C(=N)N[C@@]2(CCOc3ccc(NC(=O)c4ccc(OC(F)F)cn4)cc32)CS1(=O)=O [Example C-10],8.10,7.66
CC1(C)C(=N)N[C@@]2(CCOc3ccc(NC(=O)c4cc5ccccn5n4)cc32)CS1(=O)=O [Example C-5],6.65,7.31
CC1(C)C(=N)N[C@@]2(COCc3ccc(NC(=O)c4cnsn4)cc32)CS1(=O)=O [Example E-9],6.77,7.64
CC1(C)C(=N)N[C@@]2(CCCc3ccc(NC(=O)c4ncc(C(F)(F)F)cn4)cc32)CS1(=O)=O [Example G-22],6.80,6.79
Cc1cn(C)nc1C(=O)Nc1ccc2c(c1)[C@]1(CCO2)CS(=O)(=O)C(C)(C)C(=N)N1 [Example C-14],7.82,9.00
CC1(C)C(=N)N[C@@]2(COCc3ccc(NC(=O)c4ccc(C#N)cn4)cc32)CS1(=O)=O [Example E-14],7.96,7.46
COc1cnc(C(=O)Nc2ccc3c(c2)[C@]2(CCO3)CS(=O)(=O)C(C)(C)C(=N)N2)cn1 [Example C-23],7.28,7.34
Cc1nc(C(=O)Nc2ccc3c(c2)[C@]2(COC3)CS(=O)(=O)C(C)(C)C(=N)N2)co1 [Example E-23],7.18,8.15
Cc1nc(C(=O)Nc2ccc3c(c2)[C@]2(CCC3)CS(=O)(=O)C(C)(C)C(=N)N2)no1 [Example G-13],7.08,8.22
CC1(C)C(=N)N[C@@]2(CCCc3ccc(NC(=O)c4ncc(Cl)cc4F)cc32)CS1(=O)=O [Example G-1],7.96,8.70
CC1(C)C(=N)N[C@@]2(CCOc3ccc(NC(=O)c4ccc(F)cn4)cc32)CS1(=O)=O [Example C-9],7.48,8.30
CC1(C)C(=N)N[C@@]2(COCc3ccc(NC(=O)c4ccc(C(F)(F)F)cn4)cc32)CS1(=O)=O [Example E-6],7.39,6.81
CC1(C)C(=N)N[C@@]2(CCCc3ccc(NC(=O)c4cn5cc(C#N)ccc5n4)cc32)CS1(=O)=O [Example G-23],6.86,5.95
CC1(C)C(=N)N[C@@]2(CCCc3ccc(NC(=O)c4cc5ccccn5n4)cc32)CS1(=O)=O [Example G-3],6.30,7.13
CC1(C)C(=N)N[C@@]2(COCc3ccc(NC(=O)c4ccc(OCF)cn4)cc32)CS1(=O)=O [Example E-24],7.24,7.89
CC1(C)C(=N)N[C@@]2(CCOc3ccc(NC(=O)c4cnsn4)cc32)CS1(=O)=O [Example C-4],8.52,8.30
CC1(C)C(=N)N[C@@]2(CCCc3ccc(NC(=O)c4ccc(OCF)cn4)cc32)CS1(=O)=O [Example G-18],7.74,8.15
CC1(C)C(=N)N[C@@]2(CCCc3ccc(NC(=O)c4ccc(OC(F)F)cn4)cc32)CS1(=O)=O [Example G-15],7.92,7.66
COCC(=O)Nc1ccc2c(c1)[C@]1(CCO2)CS(=O)(=O)C(C)(C)C(=N)N1 [Example B-3],6.41,7.23
CC1(C)C(=N)N[C@@]2(COCc3ccc(NC(=O)c4cnc(C(F)(F)F)cn4)cc32)CS1(=O)=O [Example E-21],6.64,6.23
